# Measurements taken from paper PMC9519446, “Discovery of an Orally Active Benzoxaborole Prodrug Effective in the Treatment of Chagas Disease in Non-human Primates” (Nature microbiology, 2022).
# Read-outs that look alike come from different tables or passages of the source.
# System: T. cruzi extracellular amastigotes
# Assay: Extracellular amastigote assay (ATPlite luminescence, 48 hours)
# Format: cell-based
# Settings: Trypanosoma cruzi
# Procedure: The in vitro anti-T. cruzi amastiogote activity assay was performed and optimized based on the protocol described previously. The change in tdTomato fluorescence intensity was determined as a measurement of growth over 72 hours of culture. For assaying drug effects on extracellular amastigotes, trypomastigotes were collected from infected Vero cell cultures and converted in acidic media as previously described. Amastigotes (50,000/well) were incubated with 2-fold serial dilutions of compounds for 48 hours. The ATP production was used as an indication of growth in this case, and was measured by ATPlite Luminescence ATP Detection Assay System (PerkinElmer). Both fluorescence and luminescence were read using a BioTek Synergy Hybrid Multi-Mode reader equipped with the software Gene5 v 2.0 (BioTek). The dose-response curve was generated by […] analysis with GraphPad Prism v9.4.0 (GraphPad Software).
smiles,measurement,setting,value
Cc1c(C(=O)NC(C(=O)OCc2ccc(F)c(F)c2)C(C)C)ccc2c1B(O)OC2 (centres unmarked) [AN14353],IC50,"WT extracellular amastigotes, Fig. 2c, read-out: WT IC50",0.5 nM
same,IC50,"extracellular amastigotes, Fig. 2a, read-out: Extracellular IC50",0.1 nM
